Measurements taken from patent US20240182526A1, “COMPOSITIONS AND METHODS FOR MODULTING INFLAMMATORY AND DEGENERATIVE DISORDER” (University of Southern California, priority 2021, published 2024).
“Also recorded” adds a separate entry of the source. Where no end group is shown, it is not given here. [ ]: non-standard residue; d: D form. pY = N[C@@H](Cc1ccc(OP(=O)(O)O)cc1)C(=O)O

Key:
[1] = tested on: cleaved ACAN and COL2 neoepitopes; assay: Neoepitope assay on pig articular cartilage explants stimulated with OSM; assay type: cell-based; conditions: 72 hours, normalized to wet weight
Procedure: Neoepitope analysis. WT and F814 mouse articular cartilage explants were treated with or without OSM (10 ng/mL). Pig articular cartilage explants were stimulated with or without OSM (10 ng/mL) and treated with or without peptide QQpYF (100 μg/mL or 300 μg/mL). For R805 treatment, pig articular cartilage explants were stimulated with or without OSM (10 ng/mL) and treated with or without R805 (0.01, 0.1, 1 or 10 μM). The explants were then digested for 2 hr at 37° C. with 0.01 units chondroitinase ABC (Sigma Aldrich, St. Louis, MO). Samples were then dialyzed with ultrapure water for 24 hr at 4° C., freeze dried, dissolved in RIPA Lysis and Extraction Buffer (Pierce, IL) containing protease inhibitors (Pierce) followed by sonication. Proteins were separated and analyzed by Western blot using primary antibodies against aggrecan (cat #NB100-74350, Novus Biologicals,) and collagen II neoepitopes (cat #50-1035, Ibex). Wet weight of explants was used as loading control.

[2] = tested on: pSRC; assay: Western blot of pSRC in pig articular chondrocytes; assay type: cell-based; conditions: for protein levels of pSRC after OSM stimulation: pig articular chondrocytes, 4 and 24 hours
Procedure: (§1) For standard western blot, treated and non-treated cells were lysed in RIPA Lysis and Extraction Buffer (Pierce, Rockford, IL) containing protease inhibitors (Pierce) followed by sonication with a 15-second pulse at a power output of 2 using the VirSonic 100 (SP Industries Company, Warminster, PA). Protein concentrations were determined by BCA protein assay (Pierce). Proteins were resolved with SDS-PAGE utilizing 4-15% Mini-PROTEAN TGX Precast Gels and transferred to Trans-Blot Turbo Transfer Packs with a 0.2-μm pore-size nitrocellulose membrane. The SDS-PAGE running buffer, 4-15% Mini-PROTEAN TGX Precast Gels, Trans-Blot Turbo Transfer Packs with a 0.2-μm pore-size nitrocellulose membrane was purchased from Biorad (Hercules, CA). Nitrocellulose membranes were blocked in 5% nonfat milk in 0.05% (v/v) Tween 20 (PBST) (Corning, Manassas, VA). Membranes were then incubated with primary antibodies p-gp130 Y814 (Evseenko lab, AbClonal), p-AKT (cat #4060, Cell Signaling), p-ERK 1/2 (cat #9106, Cell Signaling), p-Y416-SRC (cat #1246F, Novus Biologicals), p-gp130 (cat #1453R, Bioss USA) and p-NFκBp65 (cat #8242, Cell Signaling), and/or YAP1 (cat #4912, Cell Signaling). Histone H3 (cat #9515, Cell Signaling) was used as loading control. After washing in PBS containing 0.05% (v/v) Tween 20 (PBST), membranes were incubated with rabbit (cat #31460, Thermo Scientific) or mouse IgG-HRP (cat #31430, Thermo Scientific) secondary antibodies. After washing, membranes were developed with the Clarity Western ECL Blotting Substrate (Hercules, CA). Quantification of blots was performed using ImageJ 1.44 followed by Prism9 for analysis.
(§2) The studies delineate that gp130 Y814 regulates SRC downstream signaling; since SRC is known to associate with gp130, it was hypothesized that gp130 and SRC are capable of physically interacting on Y814 and hindering this interaction will prevent SRC from signaling. In order to impede this interaction, experiments were performed using an innovative peptide library screen with short and overlapping peptides mimicking the motif of gp130 around Y814 that were individually tested for pSRC downregulation; these peptides ranged from 4-15 amino acids. The peptides contained a protein sequence stretch of consecutive amino acids surrounding gp130 Y814 residue. To test their efficacy, pig articular chondrocytes were stimulated with or without OSM in presence or absence of the peptides followed by co-immunoprecipitation to determine interaction and western blot detecting pSRC activity. […] Due to sequence specificity, the peptide is capable of discriminating among other gp130 regions serving as a competitive inhibitor.

[3] = tested on: pNF-κB p65; assay: Western blot of pNF-κB p65 in pig articular chondrocytes; assay type: cell-based; conditions: for protein levels of pNF-κB p65 after OSM stimulation: pig articular chondrocytes, 24 hours
Procedure: as §1

[4] = tested on: gp130 and pSRC; assay: Co-immunoprecipitation of complex formation between gp130 and pSRC in pig articular chondrocytes; assay type: cell-based; conditions: pig articular chondrocytes with or without OSM, 4 and 24 hours
Procedure: IP Western, SDS-PAGE and Western blot analysis. For transfections of gp130 wild type (WT) (InVivoGen) and gp130 mutant plasmids (Thermo Scientific), cells were plated 24 h prior to transfection to produce monolayers that were 60% confluent and these were transfected by using Turbo DNAfectin 3000 (cat #G3000, Lambda Biotech) according to the manufacturer's protocol. 72h after transfection, cells were maintained in DMEM (10% FBS, 1% PSA) and were either left untreated or were stimulated with IL-6 (10 ng/mL) and/or OSM (10 ng/mL) for 24 h before cell harvest and protein extraction. For immunoprecipitation assays, cell lysates were incubated with Protein G Agarose (cat #20398, Pierce) and anti-Flag antibody (cat #2368, Cell Signaling) at 4° C. overnight. The immune complexes were sedimented, washed and separated by SDS-PAGE (see below) and further analyzed by Western blot using p-SRC (pY416-SRC) (cat #1246F, Novus Biologicals) or NEMO (cat #18474-1-AP, Proteintech) antibodies and normalized to gp130 (cat #bs-1459R, Bioss) or total SRC (cat #2123, Cell Signaling). For R805 treatment, the immune complexes were sedimented, washed and separated by SDS-PAGE and further analyzed by Western blot using OSMR (cat #ab85575, Abcam), LIFR (Santa cat #515337, Cruz Biotechnology) or p-SRC (pY416-SRC) (Novus Biologicals, cat #1246F). Histone H3 (cat #9715, Cell Signaling), gp130 (cat #bs-1459R, Bioss), total SRC (cat #2123, Cell Signaling) or Flag antibody (cat #14739, Cell Signaling) were used as loading controls.
as §2

[5] = tested on: ADAMTS4/5, MMP13, COL2 and ACAN transcription; assay: qPCR of catabolic and anabolic genes in human adult OA articular chondrocytes; assay type: cell-based; conditions: 48 hours
Procedure: (§3) Quantitative Real-Time PCR. Power SYBR Green (Applied Biosystems) RT-PCR amplification and detection was performed using an Applied Biosystems Step One Plus Real-Time PCR machine. The comparative Ct method for relative quantification (2-ΔΔCt) was used to quantitate gene expression. TBP (TATA-box binding protein) was used for gene normalization and expressed relative to a calibrator (sample in each set with lowest expression). Q-PCR for was conducted using the following primers: human: TBP forward, 5′ GATGGACGTTCGGTTTAGG 3′ (SEQ ID NO:28); TBP reverse, 5′ AGCAGCACAGTACGAGCAA 3′ (SEQ ID NO:29), MMP13 forward, 5′ […] 3′(SEQ ID NO:30); MMP13 reverse, 5′ GAACCCCGCATCTTGGCTT 3′ (SEQ ID NO:31), ADAMTS5 forward 5′ […] 3′ (SEQ ID NO:32); ADAMTS5 reverse, 5′ […] 3′ (SEQ ID NO:33), ADAMTS4 forward 5′ […] 3′ (SEQ ID NO:34); ADAMTS4 reverse, 5′ […] 3′ (SEQ ID NO:35), Collagen II forward, 5′ […] 3′ (SEQ ID NO:36); Collagen II reverse 5′ […] 3′ (SEQ ID NO:37); Aggrecan forward, 5′ AGGCAGCGTGATCCTTACC 3′ (SEQ ID NO:38); Aggrecan reverse, 5′ […] 3′ (SEQ ID NO:39). Cells were treated with 10 ng/mL OSM and/or with 5 μM SRC (SU6656) inhibitor, 10 ng/mL OSM and/or 50 ng/mL WT/F814 plasmids; 10 ng/mL OSM and/or 100 or 300 ug/mL of peptide QQpYF (Evseenko lab, Thermo Scientific); 10 uM R805 and/or 10 ng/mL OSM.

[6] = tested on: pNF-kB p65; assay: Western blot of pNF-kB p65 in human synovium stimulated with OSM; assay type: cell-based; conditions: with or without OSM, 24 hours
Procedure: as §1, with “After washing in PBS containing 0.05% (v/v) Tween 20 (PBST), membranes were incubated with rabbit (cat #31460, Thermo Scientific) or mouse IgG-HRP (cat #31430, Thermo Scientific) secondary antibodies. After washing, membranes were developed with the Clarity Western ECL Blotting Substrate (Hercules, CA).” left out

[7] = biological target: T1, pSRC (Homo sapiens, UniProt P12931); assay: Western blot of pSRC in human synovium stimulated with OSM; assay type: cell-based; conditions: with or without OSM, 24 hours
T1 construct: from tissue; host or cells: human synovium
Procedure: as §1, with “After washing in PBS containing 0.05% (v/v) Tween 20 (PBST), membranes were incubated with rabbit (cat #31460, Thermo Scientific) or mouse IgG-HRP (cat #31430, Thermo Scientific) secondary antibodies. After washing, membranes were developed with the Clarity Western ECL Blotting Substrate (Hercules, CA).” left out

[8] = tested on: adult and pig articular cartilage; conditions: cited from earlier work
[9] = tested on: gp130 receptor signaling; conditions: previous studies; cited from earlier work
[10] = tested on: rat medial meniscectomy and cartilage surface injury models; conditions: cited from earlier work
[11] = tested on: ADAMTS4, ADAMTS5 and MMP13 transcription; assay: qPCR of matrix-degrading genes in OSM-stimulated pig articular chondrocytes; assay type: cell-based; conditions: 48 hours
Procedure: as §3

[12] = pig articular chondrocytes treated with peptides for 24 hours, no OSM

## QQ(PY)F (QQYF) [Peptide P2A, 4 amino acid SRC-targeting interfering peptide, Gln-Gln-phosphoTyr-Phe]
[1]
  matrix degeneration: levels of cleaved ACAN and COL2 neoepitopes: prevented matrix degeneration in pig cartilage explants; also recorded: sustained prevention of catabolism; also recorded: prevents degeneration in pig cartilage explants; also recorded: dose dependent
[1]; listed as QQpYF
  matrix degeneration: levels of cleaved ACAN and COL2 neoepitopes: decrease of aggrecanase and collagenase activity
[2]
  protein levels of pSRC after OSM stimulation: decreasing SRC and NF-κB activation; also recorded: significant effect on decreasing SRC and NF-κB signaling; also recorded: inhibits SRC activity
[2]; listed as QQ[pY]F
  protein levels of pSRC after OSM stimulation: decreasing pSRC activation
[2]; listed as QQpYF
  protein levels of pSRC after OSM stimulation: inhibits activation of SRC downstream of gp130
[3]
  protein levels of pNF-κB p65 after OSM stimulation: decreasing SRC and NF-κB activation; also recorded: significant effect on decreasing SRC and NF-κB signaling
[4]
  complex formation between gp130 and pSRC (gp130-SRC interaction): most efficacious at physically hindering gp130-SRC protein-protein interaction
[4]; listed as QQ[pY]F
  complex formation between gp130 and pSRC (gp130-SRC interaction): most efficacious at physically hindering gp130-SRC protein-protein interaction
[4]; listed as QQpYF
  complex formation between gp130 and pSRC (gp130-SRC interaction): prevents physical interaction of gp130 and SRC
[5]
  biosynthesis (COL2 and ACAN transcription), qPCR: promotes biosynthesis
  transcription of catabolic enzymes (ADAMTS4/5 and MMP13), qPCR: decreased transcription of catabolic enzymes; also recorded: inhibits transcription of matrix degrading genes
[5]; listed as QQpYF
  biosynthesis (COL2 and ACAN transcription), qPCR: increased
  transcription of catabolic enzymes (ADAMTS4/5 and MMP13), qPCR: markedly lower

## PRQQ[pY]FKQ [Peptide 5]
[6]
  protein levels of pNF-kB p65: inhibits SRC and NF-kB protein expression
[2]; [12]
  endogenous protein levels of phosphorylated c-SRC (pSRC): inhibits endogenous SRC and NF-kB protein expression
[3]; [12]
  endogenous protein levels of NF-kB p65: inhibits endogenous SRC and NF-kB protein expression
[7]
  protein levels of pSRC: inhibits SRC and NF-kB protein expression

## Brc1ccc(Nc2nc(-c3ccccc3)cs2)cc1 [RCGD 423]
[8]
  articular cartilage degeneration: protects adult and pig articular cartilage from degeneration
[9]
  STAT3 signaling and downstream MYC: highly activate STAT3 signaling and its downstream target, proto-oncogene MYC
  activation of MAPK/ERK and NF-κB pathways: prevents activation of MAPK/ERK and NF-κB pathways
[10]
  cartilage regeneration: promotes cartilage regeneration

## CN(C)S(=O)(=O)c1ccc2c(c1)/C(=C/c1cc3c([nH]1)CCCC3)C(=O)N2 [SU6656, reference compound]
[3]
  protein levels of pNF-κB p65 after OSM stimulation: can be blocked by SRC inhibition
[11]
  OSM-induced transcription of matrix-degrading genes (ADAMTS4, ADAMTS5, MMP13), qPCR: can be blocked by SRC inhibition
